Assay results: patent US6444617B1, “Fused-heterocycle dicarboxylic acid diamide derivatives or salts thereof, herbicide and usage thereof” (Nihon Nohyaku Co., Ltd., priority 1998, dated 2002)

Key:
Type in all cases: in vivo
[1] = tested on: forxtail grass (Alopecurus aequalis var. amurensis Ohwi), Am; assay: Test Example 4: herbicidal effect on upland weeds after emergence; details: dosage 5 kg/ha; sprayed after emergence; judged 14 days after treatment
Outline: (§1)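 Upland weeds and crop plants (soybean, wheat) are grown from seed in soil until they reach given leaf stages, then treated by spraying with the compound-containing agent; effects are judged two weeks later.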

[2] = tested on: cleavers (Galium aparine L.), Ga; assay: as above; details: dosage 5 kg/ha; sprayed after emergence; judged 14 days after treatment
Outline: as §1

[3] = tested on: barnyard grass (Echinochloa crus-galli Beauv.), Ec; assay: as above; details: dosage 5 kg/ha; sprayed after emergence; judged 14 days after treatment
Outline: as §1

[4] = tested on: bird's eye speedwell (Veronica persica Poir.), Vp; assay: as above; details: dosage 5 kg/ha; sprayed after emergence; judged 14 days after treatment
Outline: as §1

[5] = tested on: cocklebur (Xanthium strumarium L.), Xs; assay: as above; details: dosage 5 kg/ha; sprayed after emergence; judged 14 days after treatment
Outline: as §1

[6] = tested on: velvetleaf (Abutilon theophtasti L.), At; assay: as above; details: dosage 5 kg/ha; sprayed after emergence; judged 14 days after treatment
Outline: as §1

[7] = tested on: barnyard grass (Echinochloa crus-galli Beauv.); assay: Test Example 2: herbicidal effect on paddy field weeds after emergence; details: Dosage 5 kg/ha; one-leaved stage; 21 days after treatment
Outline: (§2)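 Weeds in flooded paddy-soil pots were grown to the one-leaved stage, then the soil was treated with the compound solution at a set dosage.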

[8] = tested on: bulrush (Scirpus juncoides Roxb.); assay: as above; details: Dosage 5 kg/ha; one-leaved stage; 21 days after treatment
Outline: as §2

[9] = tested on: monochoria (Monochoria vaginalis Presl); assay: as above; details: Dosage 5 kg/ha; one-leaved stage; 21 days after treatment
Outline: as §2

[10] = tested on: barnyard grass (Echinochloa crus-galli Beauv.); assay: Test Example 1: herbicidal effect on paddy field weeds before emergence; details: Dosage 5 kg/ha
Outline: (§3)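 Soil in pots is brought to paddy state and seeded with barnyard grass and bulrush; before germination, the soil receives a predetermined dosage of test compound in solution. After twenty-one days, control rate relative to untreated pots is calculated and graded.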

[11] = tested on: bulrush (Scirpus juncoides Roxb.); assay: as above; details: Dosage 5 kg/ha
Outline: as §3

[12] = tested on: forxtail grass (Alopecurus aequalis var. amurensis Ohwi), Am; assay: Test Example 3: herbicidal effect on upland weeds before emergence; details: foxtail grass, dosage 5 kg/ha
Outline: (§4)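 Pre-emergence spray of liquid prep, compound at set concentration; read at 14 d post-treatment; weed-kill rate calculated, effect graded.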

[13] = tested on: cleavers (Galium aparine L.), Ga; assay: as above; details: dosage 5 kg/ha
Outline: as §4

[14] = tested on: barnyard grass (Echinochloa crus-galli Beauv.), Ec; assay: as above; details: dosage 5 kg/ha
Outline: as §4

[15] = tested on: bird's eye speedwell (Veronica persica Poir.), Vp; assay: as above; details: dosage 5 kg/ha
Outline: as §4

[16] = tested on: cocklebur (Xanthium strumarium L.), Xs; assay: as above; details: dosage 5 kg/ha
Outline: as §4

[17] = tested on: velvetleaf (Abutilon theophtasti L.), At; assay: as above; details: dosage 5 kg/ha
Outline: as §4

wheat = assay: Test Example 4: phytotoxicity to upland crop plants, treatment after emergence; details: dosage 5 kg/ha, sprayed after emergence, judged 14 days after treatment
Outline: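 Weeds, soybean and wheat were sown in soil-filled vats, covered with soil and grown to set leaf stages before a post-emergence spray of an agent containing the compound at a prescribed concentration. Weed-killing rate and crop phytotoxicity were assessed 14 days after treatment.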

soybean plant = assay: as above; details: dosage 5 kg/ha, sprayed after emergence, judged 14 days after treatment
Outline: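 Post-emergence foliar spray at a prescribed concentration, applied once the sown weeds and soybean reached defined leaf stages in soil vats; herbicidal effect and soybean injury scored after 14 days.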

wheat (Wh) = assay: Test Example 3: phytotoxicity to upland crop plants, treatment before emergence; details: dosage 5 kg/ha
Outline: (§5)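 Crops treated before emergence with sprayed liquid preparation of compound (prescribed concentration). Day 14: phytotoxicity graded per criterion.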

soybean plant (So) = assay: as above; details: dosage 5 kg/ha
Outline: as §5

## CCCNC(=O)c1nc2c(cc1C(=O)Nc1c(CC)ccc(Cl)c1CC)ncn2C [compound 1269]
[1]
  Herbicidal effect Am: 5 (Weed-killing rate is 100%.)
[2]
  Herbicidal effect Ga: 5 (Weed-killing rate is 100%.)
[3]
  Herbicidal effect Ec: 5 (Weed-killing rate is 100%.)
[4]
  Herbicidal effect Vp: 5 (Weed-killing rate is 100%.)
[5]
  Herbicidal effect Xs: 5 (Weed-killing rate is 100%.)
[6]
  Herbicidal effect At: 5 (Weed-killing rate is 100%.)
[7]
  Post-emergence treatment Barnyard grass (herbicidal effect): 5 (Weed-killing rate is 100%.)
[8]
  Post-emergence treatment Bulrush (herbicidal effect): 5 (Weed-killing rate is 100%.)
[9]
  Post-emergence treatment Monochoria (herbicidal effect): 5 (Weed-killing rate is 100%.)
[10]
  Pre-emergence treatment Barnyard grass (herbicidal effect): 5 (Weed-killing rate is 100%.)
[11]
  Pre-emergence treatment Bulrush (herbicidal effect): 5 (Weed-killing rate is 100%.)
[12]
  Herbicidal effect Am: 5 (Weed-killing rate is 100%.)
[13]
  Herbicidal effect Ga: 5 (Weed-killing rate is 100%.)
[14]
  Herbicidal effect Ec: 5 (Weed-killing rate is 100%.)
[15]
  Herbicidal effect Vp: 5 (Weed-killing rate is 100%.)
[16]
  Herbicidal effect Xs: 5 (Weed-killing rate is 100%.)
[17]
  Herbicidal effect At: 5 (Weed-killing rate is 100%.)
wheat
  Phytotoxicity Wh: 5 (Crop-killing rate is 100%.)
Soybean plant
  Phytotoxicity So: 4 (Crop-killing rate is 90-99%.)
Wheat (Wh)
  Phytotoxicity Wh: 5 (Crop-killing rate is 100%.)
Soybean plant (So)
  Phytotoxicity So: 4 (Crop-killing rate is 90-99%.)

## CCCNC(=O)c1nc2c(cc1C(=O)Nc1c(CC)ccc(Cl)c1CC)nc(C)n2C [compound 1294]
[1]
  Herbicidal effect Am: 5 (Weed-killing rate is 100%.)
[2]
  Herbicidal effect Ga: 5 (Weed-killing rate is 100%.)
[3]
  Herbicidal effect Ec: 5 (Weed-killing rate is 100%.)
[4]
  Herbicidal effect Vp: 5 (Weed-killing rate is 100%.)
[5]
  Herbicidal effect Xs: 5 (Weed-killing rate is 100%.)
[6]
  Herbicidal effect At: 5 (Weed-killing rate is 100%.)
[7]
  Post-emergence treatment Barnyard grass (herbicidal effect): 5 (Weed-killing rate is 100%.)
[8]
  Post-emergence treatment Bulrush (herbicidal effect): 5 (Weed-killing rate is 100%.)
[9]
  Post-emergence treatment Monochoria (herbicidal effect): 5 (Weed-killing rate is 100%.)
[10]
  Pre-emergence treatment Barnyard grass (herbicidal effect): 5 (Weed-killing rate is 100%.)
[11]
  Pre-emergence treatment Bulrush (herbicidal effect): 5 (Weed-killing rate is 100%.)
[12]
  Herbicidal effect Am: 5 (Weed-killing rate is 100%.)
[13]
  Herbicidal effect Ga: 5 (Weed-killing rate is 100%.)
[14]
  Herbicidal effect Ec: 5 (Weed-killing rate is 100%.)
[15]
  Herbicidal effect Vp: 5 (Weed-killing rate is 100%.)
[16]
  Herbicidal effect Xs: 5 (Weed-killing rate is 100%.)
[17]
  Herbicidal effect At: 5 (Weed-killing rate is 100%.)
wheat
  Phytotoxicity Wh: 5 (Crop-killing rate is 100%.)
Soybean plant
  Phytotoxicity So: 4 (Crop-killing rate is 90-99%.)
Wheat (Wh)
  Phytotoxicity Wh: 5 (Crop-killing rate is 100%.)
Soybean plant (So)
  Phytotoxicity So: 4 (Crop-killing rate is 90-99%.)

## CCNC(=O)c1nc2ccccc2nc1C(=O)Nc1c(CC)ccc(Cl)c1CC [compound 1305]
[1]
  Herbicidal effect Am: 5 (Weed-killing rate is 100%.)
[2]
  Herbicidal effect Ga: 5 (Weed-killing rate is 100%.)
[3]
  Herbicidal effect Ec: 5 (Weed-killing rate is 100%.)
[4]
  Herbicidal effect Vp: 5 (Weed-killing rate is 100%.)
[5]
  Herbicidal effect Xs: 5 (Weed-killing rate is 100%.)
[6]
  Herbicidal effect At: 5 (Weed-killing rate is 100%.)
[7]
  Post-emergence treatment Barnyard grass (herbicidal effect): 5 (Weed-killing rate is 100%.)
[8]
  Post-emergence treatment Bulrush (herbicidal effect): 5 (Weed-killing rate is 100%.)
[9]
  Post-emergence treatment Monochoria (herbicidal effect): 5 (Weed-killing rate is 100%.)
[10]
  Pre-emergence treatment Barnyard grass (herbicidal effect): 5 (Weed-killing rate is 100%.)
[11]
  Pre-emergence treatment Bulrush (herbicidal effect): 5 (Weed-killing rate is 100%.)
[12]
  Herbicidal effect Am: 5 (Weed-killing rate is 100%.)
[13]
  Herbicidal effect Ga: 5 (Weed-killing rate is 100%.)
[14]
  Herbicidal effect Ec: 5 (Weed-killing rate is 100%.)
[15]
  Herbicidal effect Vp: 5 (Weed-killing rate is 100%.)
[16]
  Herbicidal effect Xs: 5 (Weed-killing rate is 100%.)
[17]
  Herbicidal effect At: 5 (Weed-killing rate is 100%.)
wheat
  Phytotoxicity Wh: 5 (Crop-killing rate is 100%.)
Soybean plant
  Phytotoxicity So: 5 (Crop-killing rate is 100%.)
Wheat (Wh)
  Phytotoxicity Wh: 5 (Crop-killing rate is 100%.)
Soybean plant (So)
  Phytotoxicity So: 5 (Crop-killing rate is 100%.)

## CCCNC(=O)c1nc2ccccc2nc1C(=O)Nc1c(CC)ccc(Cl)c1CC [compound 1306]
[1]
  Herbicidal effect Am: 5 (Weed-killing rate is 100%.)
[2]
  Herbicidal effect Ga: 5 (Weed-killing rate is 100%.)
[3]
  Herbicidal effect Ec: 5 (Weed-killing rate is 100%.)
[4]
  Herbicidal effect Vp: 5 (Weed-killing rate is 100%.)
[5]
  Herbicidal effect Xs: 5 (Weed-killing rate is 100%.)
[6]
  Herbicidal effect At: 5 (Weed-killing rate is 100%.)
[7]
  Post-emergence treatment Barnyard grass (herbicidal effect): 5 (Weed-killing rate is 100%.)
[8]
  Post-emergence treatment Bulrush (herbicidal effect): 5 (Weed-killing rate is 100%.)
[9]
  Post-emergence treatment Monochoria (herbicidal effect): 5 (Weed-killing rate is 100%.)
[10]
  Pre-emergence treatment Barnyard grass (herbicidal effect): 5 (Weed-killing rate is 100%.)
[11]
  Pre-emergence treatment Bulrush (herbicidal effect): 5 (Weed-killing rate is 100%.)
[12]
  Herbicidal effect Am: 5 (Weed-killing rate is 100%.)
[13]
  Herbicidal effect Ga: 5 (Weed-killing rate is 100%.)
[14]
  Herbicidal effect Ec: 5 (Weed-killing rate is 100%.)
[15]
  Herbicidal effect Vp: 5 (Weed-killing rate is 100%.)
[16]
  Herbicidal effect Xs: 5 (Weed-killing rate is 100%.)
[17]
  Herbicidal effect At: 5 (Weed-killing rate is 100%.)
wheat
  Phytotoxicity Wh: 5 (Crop-killing rate is 100%.)
Soybean plant
  Phytotoxicity So: 5 (Crop-killing rate is 100%.)
Wheat (Wh)
  Phytotoxicity Wh: 5 (Crop-killing rate is 100%.)
Soybean plant (So)
  Phytotoxicity So: 5 (Crop-killing rate is 100%.)

## CCc1ccc(Cl)c(CC)c1NC(=O)c1nc2ccccc2nc1C(=O)NCC(C)C [compound 1311]
[1]
  Herbicidal effect Am: 5 (Weed-killing rate is 100%.)
[2]
  Herbicidal effect Ga: 5 (Weed-killing rate is 100%.)
[3]
  Herbicidal effect Ec: 5 (Weed-killing rate is 100%.)
[4]
  Herbicidal effect Vp: 5 (Weed-killing rate is 100%.)
[5]
  Herbicidal effect Xs: 5 (Weed-killing rate is 100%.)
[6]
  Herbicidal effect At: 5 (Weed-killing rate is 100%.)
[7]
  Post-emergence treatment Barnyard grass (herbicidal effect): 5 (Weed-killing rate is 100%.)
[8]
  Post-emergence treatment Bulrush (herbicidal effect): 5 (Weed-killing rate is 100%.)
[9]
  Post-emergence treatment Monochoria (herbicidal effect): 5 (Weed-killing rate is 100%.)
[10]
  Pre-emergence treatment Barnyard grass (herbicidal effect): 5 (Weed-killing rate is 100%.)
[11]
  Pre-emergence treatment Bulrush (herbicidal effect): 5 (Weed-killing rate is 100%.)
[12]
  Herbicidal effect Am: 5 (Weed-killing rate is 100%.)
[13]
  Herbicidal effect Ga: 5 (Weed-killing rate is 100%.)
[14]
  Herbicidal effect Ec: 5 (Weed-killing rate is 100%.)
[15]
  Herbicidal effect Vp: 5 (Weed-killing rate is 100%.)
[16]
  Herbicidal effect Xs: 5 (Weed-killing rate is 100%.)
[17]
  Herbicidal effect At: 5 (Weed-killing rate is 100%.)
wheat
  Phytotoxicity Wh: 5 (Crop-killing rate is 100%.)
Soybean plant
  Phytotoxicity So: 5 (Crop-killing rate is 100%.)
Wheat (Wh)
  Phytotoxicity Wh: 5 (Crop-killing rate is 100%.)
Soybean plant (So)
  Phytotoxicity So: 5 (Crop-killing rate is 100%.)
